According to patent US20090197897A1, “Novel Oxadiazole Derivatives and Their Use as Positive Allosteric Modulators of Metabotropic Glutamate Receptors” (Addex Pharma SA, priority 2005, published 2009):

What was measured:
rat mGluR5 = molecular target: T1, rat mGluR5 (Rattus norvegicus, UniProt P31424); test: mGluR5 assay on HEK-expressing rat mGluR5 (fluorescent cell based Ca2+ mobilization assay); conditions: HEK-293 cells stably expressing rat mGluR5; no co-addition of glutamate; mean of at least three independent experiments in duplicate; read-out: Ca++ Flux (mean EC50)
T1 construct: expressed in transfected cells
Outline: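 HEK-293 cells stably expressing rat mGluR5, Fluo-4 loaded 60 min, in HEPES buffer pH 7.4 with sulfinpyrazone; compound (0.01 to 60 μM, 0.3% DMSO) added alone, no glutamate co-addition, and Ca2+ fluorescence followed 3 min by FLIPR. Duplicate points; EC50 from four-parameter logistic fit, mean of at least three experiments.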

mGluR5 = molecular target: T2, mGluR5 (Rattus norvegicus, UniProt P31424); test: mGluR5 binding assay ([3H]-MPEP, rat brain membranes); conditions: 3 nM [3H]-MPEP, 1 h at 4° C.
T2 construct: positive allosteric modulators of mGluR5 receptors in native preparations; endogenous in cells; host or cells: primary cortical astrocytes from Sprague-Dawley rat embryos (day 16 to 19)
Excerpt: Activity of compounds of the invention was examined following a radioligand binding technique using whole rat brain and tritiated 2-methyl-6-(phenylethynyl)-pyridine ([^3H]-MPEP) as a ligand following similar methods than those described in Gasparini et al. (2002) Bioorg. Med. Chem. Lett. 12:407-409 and in Anderson et al. (2002) J. Pharmacol. Exp. Ther. 303 (3) 1044-1051.
Cortices were dissected out from brains of 200-300 g Sprague-Dawley rats (Charles River Laboratories, L'Arbresle, France). Tissues were homogenized in 10 volumes (vol/wt) of ice-cold 50 mM Hepes-NaOH (pH 7.4) using a Polytron disrupter (Kinematica AG, Luzern, Switzerland) and centrifuged for 30 min at 40,000 g. (4° C.). […] Protein concentration was determined by the Bradford method (Bio-Rad protein assay, Reinach, Switzerland) with bovine serum albumin as standard.
Membranes were thawed and resuspended in binding buffer containing 20 mM HEPES-NaOH, 3 mM MgCl2, 3 mM CaCl2, 100 mM NaCl, pH 7.4. […] Radioactivity was determined by liquid scintillation spectrometry using a 96-well plate reader (TopCount, Perkin-Elmer, Downers Grove, USA).
The inhibition curves were generated using the Prism GraphPad program (Graph Pad Software Inc, San Diego, USA). […] The mean of IC50 obtained from at least three independent experiments of selected molecules performed in duplicate were calculated.

T1 sequence (P31424 21-1171 isoform P31424-2 limits assumed): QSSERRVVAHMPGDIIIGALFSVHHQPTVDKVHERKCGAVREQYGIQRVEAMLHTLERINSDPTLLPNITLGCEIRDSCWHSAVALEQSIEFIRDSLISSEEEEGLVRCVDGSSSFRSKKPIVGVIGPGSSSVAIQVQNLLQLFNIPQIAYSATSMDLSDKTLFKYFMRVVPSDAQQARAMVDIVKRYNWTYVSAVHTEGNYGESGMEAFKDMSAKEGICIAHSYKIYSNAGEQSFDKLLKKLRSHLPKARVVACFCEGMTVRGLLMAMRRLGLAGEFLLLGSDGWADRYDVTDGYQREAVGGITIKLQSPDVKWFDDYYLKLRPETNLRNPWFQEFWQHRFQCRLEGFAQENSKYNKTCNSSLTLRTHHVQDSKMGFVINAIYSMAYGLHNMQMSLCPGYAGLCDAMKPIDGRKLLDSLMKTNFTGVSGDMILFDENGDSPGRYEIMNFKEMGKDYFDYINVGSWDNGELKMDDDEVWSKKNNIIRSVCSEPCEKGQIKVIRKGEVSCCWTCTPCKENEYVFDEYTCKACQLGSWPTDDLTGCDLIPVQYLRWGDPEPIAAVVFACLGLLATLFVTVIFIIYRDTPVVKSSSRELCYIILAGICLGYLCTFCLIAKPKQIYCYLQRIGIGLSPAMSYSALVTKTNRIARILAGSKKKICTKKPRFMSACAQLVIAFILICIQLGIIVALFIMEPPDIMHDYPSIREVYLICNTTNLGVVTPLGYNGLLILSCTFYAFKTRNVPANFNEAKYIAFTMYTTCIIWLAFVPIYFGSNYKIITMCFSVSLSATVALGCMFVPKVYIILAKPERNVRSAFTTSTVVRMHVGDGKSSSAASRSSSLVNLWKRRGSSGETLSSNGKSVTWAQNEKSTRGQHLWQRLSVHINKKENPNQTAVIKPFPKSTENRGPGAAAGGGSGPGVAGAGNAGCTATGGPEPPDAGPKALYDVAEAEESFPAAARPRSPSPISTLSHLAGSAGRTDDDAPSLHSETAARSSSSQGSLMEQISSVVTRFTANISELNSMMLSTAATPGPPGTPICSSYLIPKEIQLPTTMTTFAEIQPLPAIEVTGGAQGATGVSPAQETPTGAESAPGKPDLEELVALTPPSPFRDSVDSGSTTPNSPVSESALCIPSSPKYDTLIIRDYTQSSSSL
T2 sequence (P31424 21-1203): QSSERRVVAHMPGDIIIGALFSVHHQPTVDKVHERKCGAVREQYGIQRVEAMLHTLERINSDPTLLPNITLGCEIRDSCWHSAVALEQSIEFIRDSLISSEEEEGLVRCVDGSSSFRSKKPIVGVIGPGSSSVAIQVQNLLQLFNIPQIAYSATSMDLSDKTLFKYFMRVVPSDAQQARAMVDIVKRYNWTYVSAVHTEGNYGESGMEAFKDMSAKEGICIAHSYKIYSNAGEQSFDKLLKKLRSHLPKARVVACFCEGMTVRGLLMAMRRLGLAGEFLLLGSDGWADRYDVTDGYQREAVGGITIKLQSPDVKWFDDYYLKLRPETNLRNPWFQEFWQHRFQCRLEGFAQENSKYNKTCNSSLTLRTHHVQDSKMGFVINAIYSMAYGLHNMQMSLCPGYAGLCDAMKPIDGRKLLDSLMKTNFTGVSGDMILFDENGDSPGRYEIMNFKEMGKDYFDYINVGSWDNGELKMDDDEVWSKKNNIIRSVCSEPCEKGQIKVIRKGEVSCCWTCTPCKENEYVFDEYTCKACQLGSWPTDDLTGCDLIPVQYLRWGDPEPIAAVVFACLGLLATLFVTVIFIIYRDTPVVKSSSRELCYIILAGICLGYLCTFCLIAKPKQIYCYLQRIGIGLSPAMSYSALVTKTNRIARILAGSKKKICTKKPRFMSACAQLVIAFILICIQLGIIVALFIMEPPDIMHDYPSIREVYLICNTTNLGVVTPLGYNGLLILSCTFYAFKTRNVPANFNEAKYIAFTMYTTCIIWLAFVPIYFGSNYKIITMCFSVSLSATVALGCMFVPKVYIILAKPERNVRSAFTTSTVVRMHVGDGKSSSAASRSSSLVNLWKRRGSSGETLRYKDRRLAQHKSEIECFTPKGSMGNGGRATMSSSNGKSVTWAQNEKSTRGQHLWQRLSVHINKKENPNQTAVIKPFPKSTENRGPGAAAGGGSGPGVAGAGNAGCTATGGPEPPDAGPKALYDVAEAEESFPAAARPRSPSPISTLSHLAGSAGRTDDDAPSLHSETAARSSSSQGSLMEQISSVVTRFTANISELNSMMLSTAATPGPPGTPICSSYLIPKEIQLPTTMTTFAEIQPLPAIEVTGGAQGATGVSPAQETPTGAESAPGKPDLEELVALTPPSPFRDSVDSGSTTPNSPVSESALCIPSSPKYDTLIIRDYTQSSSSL

EC50 (rat mGluR5): < 1 µM | IC50 (mGluR5): < 30 µM
Structure (SMILES): O=C(c1ccc(F)nc1)N1CCC[C@H](c2nc(-c3ccc(F)cc3)no2)C1 [Example 29, (S)-{3-[3-(4-Fluoro-phenyl)-[1,2,4]oxadiazol-5-yl]-piperidin-1-yl}-(6-fluoro-pyridin-3-yl)-methanone]
